Test results: ChEMBL document CHEMBL1123955, “Improved delivery through biological membranes. 32. Synthesis and biological activity of brain-targeted delivery systems for various estradiol derivatives” (J Med Chem, 1988)
Where “and” joins values, the source holds several entries; their conditions need not be identical. Equal entries are not always repeated.

Legend:
[1] = Partition coefficient (logP); assay type: physicochemical; conditions: octanol/water
[2] = Rate constant in liver homogenate; assay type: ADME, tissue-based; conditions: tissue homogenate
[3] = Half life in whole rat blood; assay type: ADME
[4] = Rate constant in brain homogenate; assay type: ADME, tissue-based
[5] = species on record: Rattus norvegicus; assay: Rate constant in whole rat blood; assay type: ADME
[6] = Half life in liver homogenate; assay type: ADME, tissue-based
[7] = Half life in brain homogenate; assay type: ADME, tissue-based
[8] = system: Rattus norvegicus; assay: Concentration in brain 6 hr after administration of compound 4d; assay type: functional, organism-based
[9] = system: Rattus norvegicus; assay: Concentration in blood 0.25 hr after administration of compound 4d; assay type: functional, organism-based
[10] = system: Rattus norvegicus; assay: Concentration in brain 24 hr after administration of compound 4d; assay type: functional, organism-based
[11] = system: Rattus norvegicus; assay: Concentration in brain 0.25 hr after administration of compound 4d; assay type: functional, organism-based
[12] = system: Rattus norvegicus; assay: Concentration in blood 1 hr after administration of compound 4d; assay type: functional, organism-based
[13] = system: Rattus norvegicus; assay: Concentration in brain hr after administration of compound 4d; assay type: functional, organism-based
[14] = system: Rattus norvegicus; assay: Concentration in brain 3 hr after administration of compound 4d; assay type: functional, organism-based

Structure (SMILES) | logP [1] | k [2] [min⁻¹] | half-life [3] [min] | k [4] [min⁻¹] | k [5] [min⁻¹] | half-life [6] [min] | half-life [7] [min] | Concentration [8] [ng/g] | Concentration [9] [ng/g] | Concentration [10] [ng/g] | Concentration [11] [ng/g] | Concentration [12] [ng/g] | Concentration [13] | Concentration [14] [ng/g]
CN1C=CCC(C(=O)O[C@H]2CC[C@H]3[C@@H]4CCc5cc(O)ccc5[C@H]4CC[C@]23C)=C1 | 4.5 | 0.0283 | 39.6 | 0.0537 | 0.0175 | 30.5 | 12.9 | – | – | – | – | – | – | –
C#C[C@]1(OC(=O)C2=CN(C)C=CC2)CC[C@H]2[C@@H]3CCc4cc(O)ccc4[C@H]3CC[C@@]21C | 4.53 | 0.0227 | 49.9 | 0.0567 | 0.0139 | 24.5 | 12.4 | – | – | – | – | – | – | –
C#C[C@]1(OC(=O)c2ccc[n+](C)c2)CC[C@H]2[C@@H]3CCc4cc(O)ccc4[C@H]3CC[C@@]21C | – | – | – | – | – | – | – | 7.07 | 0.822 | 7.79 | 7.16 | 0.552 | 7.16 ng/g and 7.35 ng/g | 7.35
